The structures appear in SMILES notation.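 Following 48 hours of exposure in 96-well plates, responses at five concentrations were used to interpolate endpoints linearly. At the GI50, growth is halved. The concentration for full growth arrest is given as TGI.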 A value given as a limit tells only on which side of the number the result lay.

The first assay relates to OVCAR-3 ovarian. Description: NCI tumour cell line growth inhibition, 48 h.
On to `COc1cc(-c2csc(NC(=O)c3cc(C(F)(F)F)cc(C(F)(F)F)c3)n2)cc(OC)c1OC`, for which the GI50 is 2.98 µM and the TGI amounted to 19 µM.
The compound `CC[N+]1(C)CCC(O)(c2ccc(C)cc2)C(C(=O)c2ccc(C)cc2)C1` (stereo unspecified) displayed a TGI of 39.6 µM.
In the case of `CC(=O)c1cccc(N(/C=C/C(=O)C(F)(F)F)CC(=O)c2ccc(Cl)cc2)c1`, the GI50 is over 100 µM and the TGI is over 100 µM.
Regarding `COc1ccc(Cl)cc1Nc1nc(C(F)(F)F)ccc1C(=O)NN`, the GI50 was 0.615 µM and the TGI was over 24.5 µM.
Turning to `CC(C)c1ccc2nc3ccc(C(=O)NCCN(C)C)cn3c(=O)c2c1`, the TGI is over 100 µM.
As to `C#C[C@]1(O)CC[C@H]2[C@@H]3CC=C4c5nc(Nc6ccccn6)sc5CC[C@]4(C)[C@H]3CC[C@@]21C`, the GI50 is 1.43 µM and the TGI is 3.29 µM.
Compound `O=c1oc2ccccc2c(O)c1C=NC(=S)c1ccncc1` gave a TGI of over 100 µM.
Take `CC(O)CNC1=CC(=O)C(=O)c2ccccc21` (stereo unspecified): the TGI worked out at 13.4 µM.
The same measure, in the same setting: to `CC1=C(C(=O)NC2CCCCC2)CC(C(=O)NC2CCCCC2)=C(C)N1` belongs over 100 µM; to `Cc1cc2c(C(C)C)c(O)c(O)c(C=Nc3cc(C(F)(F)F)ccc3Cl)c2c(O)c1-c1c(C)cc2c(C(C)C)c(O)c(O)c(C=Nc3cc(C(F)(F)F)ccc3Cl)c2c1O`, over 100 µM; to `O=c1nc(-c2ccccc2)c2c3c(cccn13)CCC2`, over 100 µM.
For `CC(CO)[C@H]1OC(=O)C=C2[C@@]13O[C@@H]3[C@H]1OC(=O)[C@@]3(C)[C@H]4O[C@H]4C[C@@]2(C)[C@@H]13` (stereo partly specified), the TGI was over 30.1 µM.
With `O=C(c1ccccc1)c1c(CC(O)c2cccnc2)n(C(=O)c2ccccc2)c2ccccc12` (stereo unspecified), the TGI was found to be 32.9 µM.
Consider `C=C(C)C1CC2C(C)=C(OC(C)=O)C1n1c(=O)c3cc4ccccc4cc3c(=O)n12` (stereo unspecified), for which the TGI was over 100 µM.
On to `COc1cc(/C=C2\CN(C)CC3=C2Nc2nc(SC)[nH]c(=O)c2C3c2cc(OC)c(OC)c(OC)c2)cc(OC)c1OC` (stereo unspecified), for which the GI50 is 2.64 µM and the TGI came out at 6.72 µM.
For `COc1cc(Nc2ccnc(N3CCN(c4ccnc5cc(Cl)ccc45)CC3)n2)cc(OC)c1`, the GI50 was 2.53 µM and the TGI was over 28.9 µM.
Taken in the same sequence, the figures for `COC(=O)C1=C(OC(=O)c2ccc(Cl)cc2)C(C(=O)OC)[C@@]2(O)[C@@H](C(=O)OC)C(c3ccccc3C(F)(F)F)C[C@@H]1[C@@H]2C(=O)OC` (stereo partly specified) were 20.3 µM and 47.9 µM.
The compound `Cc1c(C)c2cc3c(=O)ccoc3c(C)c2oc1=O` returned a TGI of over 100 µM.

A further assay deals with RPMI-8226 leukemia. The assay is described as follows: NCI tumour cell line growth inhibition, 48 h.
On to `COc1cc(-c2csc(NC(=O)c3cc(C(F)(F)F)cc(C(F)(F)F)c3)n2)cc(OC)c1OC`, for which the GI50 was 1.38 µM and the TGI came out at 4.05 µM.
As for `CC(C)=CCC12Cc3ccc(O)cc3C(C(C)CN1)C2C` (stereo unspecified), the TGI is over 100 µM.
With `CC[N+]1(C)CCC(O)(c2ccc(C)cc2)C(C(=O)c2ccc(C)cc2)C1` (stereo unspecified), the TGI stood at 37.3 µM.
As to `CC(=O)c1cccc(N(/C=C/C(=O)C(F)(F)F)CC(=O)c2ccc(Cl)cc2)c1`, the GI50 is over 100 µM and the TGI is over 100 µM.
With `COc1ccc(Cl)cc1Nc1nc(C(F)(F)F)ccc1C(=O)NN`, the GI50 was 1.91 µM and the TGI is 13.3 µM.
Taken in the same sequence, the figures for `C#C[C@]1(O)CC[C@H]2[C@@H]3CC=C4c5nc(Nc6ccccn6)sc5CC[C@]4(C)[C@H]3CC[C@@]21C` were 0.182 µM and 0.602 µM.
`CC(O)CNC1=CC(=O)C(=O)c2ccccc21` (stereo unspecified) had a TGI of 48 µM.
Same read-out and setting: to `CC1=C(C(=O)NC2CCCCC2)CC(C(=O)NC2CCCCC2)=C(C)N1` belongs over 100 µM; to `Cc1cc2c(C(C)C)c(O)c(O)c(C=Nc3cc(C(F)(F)F)ccc3Cl)c2c(O)c1-c1c(C)cc2c(C(C)C)c(O)c(O)c(C=Nc3cc(C(F)(F)F)ccc3Cl)c2c1O`, over 100 µM; to `O=c1nc(-c2ccccc2)c2c3c(cccn13)CCC2`, over 100 µM.
`CC(CO)[C@H]1OC(=O)C=C2[C@@]13O[C@@H]3[C@H]1OC(=O)[C@@]3(C)[C@H]4O[C@H]4C[C@@]2(C)[C@@H]13` (stereo partly specified) gave a TGI of 8.75 µM.
Same read-out and setting: to `O=C(c1ccccc1)c1c(CC(O)c2cccnc2)n(C(=O)c2ccccc2)c2ccccc12` (stereo unspecified) belongs 44.2 µM; to `C=C(C)C1CC2C(C)=C(OC(C)=O)C1n1c(=O)c3cc4ccccc4cc3c(=O)n12` (stereo unspecified), over 81.3 µM; to `O=C(CC(C(=O)c1cccs1)c1ccc2c(c1)OCO2)c1ccc(Br)cc1` (stereo unspecified), over 100 µM.
For the compound `C[C@]12CC[C@@H]3c4ccc(O)c([N+](=O)[O-])c4CC[C@H]3[C@@H]1CC[C@@H]2NS(=O)(=O)c1ccc(C(F)(F)F)cc1`, the GI50 was 2.17 µM and the TGI worked out at 5.4 µM.
Consider `COC(=O)C1=C(OC(=O)c2ccc(Cl)cc2)C(C(=O)OC)[C@@]2(O)[C@@H](C(=O)OC)C(c3ccccc3C(F)(F)F)C[C@@H]1[C@@H]2C(=O)OC` (stereo partly specified), for which the GI50 was 2.99 µM and the TGI was over 100 µM.
With `Cc1c(C)c2cc3c(=O)ccoc3c(C)c2oc1=O`, the TGI was over 100 µM.
On the same count and under the same terms, under `N#Cc1ccc(-c2nc(C#N)c(N)o2)cc1` stands over 10 µM.

The test system of another assay is SK-MEL-5 melanoma. Description: NCI tumour cell line growth inhibition, 48 h.
Turning to `COc1cc(-c2csc(NC(=O)c3cc(C(F)(F)F)cc(C(F)(F)F)c3)n2)cc(OC)c1OC`, the GI50 is 1.47 µM and the TGI was 3.11 µM.
As for `CC[N+]1(C)CCC(O)(c2ccc(C)cc2)C(C(=O)c2ccc(C)cc2)C1` (stereo unspecified), the TGI is over 100 µM.
On to `CC(=O)c1cccc(N(/C=C/C(=O)C(F)(F)F)CC(=O)c2ccc(Cl)cc2)c1`, for which the GI50 is over 100 µM and the TGI was over 100 µM.
With `COc1ccc(Cl)cc1Nc1nc(C(F)(F)F)ccc1C(=O)NN`, the GI50 is 5.8 µM and the TGI is over 20.4 µM.
In turn, `CC(C)c1ccc2nc3ccc(C(=O)NCCN(C)C)cn3c(=O)c2c1` registered a TGI of 24.8 µM.
As to `C#C[C@]1(O)CC[C@H]2[C@@H]3CC=C4c5nc(Nc6ccccn6)sc5CC[C@]4(C)[C@H]3CC[C@@]21C`, the GI50 is 1.6 µM and the TGI is 2.98 µM.
On to `O=c1oc2ccccc2c(O)c1C=NC(=S)c1ccncc1`, for which the TGI was over 100 µM.
Still for that read-out and setting: under `CC(O)CNC1=CC(=O)C(=O)c2ccccc21` (stereo unspecified) stands 15 µM; under `CC1=C(C(=O)NC2CCCCC2)CC(C(=O)NC2CCCCC2)=C(C)N1`, over 100 µM; under `Cc1cc2c(C(C)C)c(O)c(O)c(C=Nc3cc(C(F)(F)F)ccc3Cl)c2c(O)c1-c1c(C)cc2c(C(C)C)c(O)c(O)c(C=Nc3cc(C(F)(F)F)ccc3Cl)c2c1O`, 64.7 µM.
For the compound `O=c1nc(-c2ccccc2)c2c3c(cccn13)CCC2`, the TGI was over 100 µM.
On the same count and under the same terms, under `CC(CO)[C@H]1OC(=O)C=C2[C@@]13O[C@@H]3[C@H]1OC(=O)[C@@]3(C)[C@H]4O[C@H]4C[C@@]2(C)[C@@H]13` (stereo partly specified) stands over 37.5 µM; under `O=C(c1ccccc1)c1c(CC(O)c2cccnc2)n(C(=O)c2ccccc2)c2ccccc12` (stereo unspecified), 31 µM.
